Data reported in patent US20160039802A1, “3-PYRIMIDIN-4-YL-OXAZOLIDIN-2-ONES AS INHIBITORS OF MUTANT IDH” (NOVARTIS AG, priority 2013, published 2016).
pIC50: −log10 of the molar value.

Columns and labels:
[1] = target: T1, Mutant IDH1 R132H (Homo sapiens, UniProt O75874, R132H); test: Mutant IDH1 biochemical assay: LC-MS detection of 2-HG; conditions: mIDH R132H […], 5 uM NADPH, 100 uM alpha-KG, 45 minutes incubation; range where run multiple times; also: mIDH R132H 0.25 nM, 5 µM NADPH
T1 construct: His6 with PreScission site (N, cleaved yes); made in house; host or cells: E. coli Rosetta 2(DE3)
Excerpt: Mutant IDH1 biochemical Sssay: LC-MS Detection of 2-HG.

[2] = target: T2, IDH1 (R132H) mutant (Homo sapiens, UniProt O75874, R132H); test: Fluorescence biochemical assay (NADPH oxidation); conditions: mIDH R132H 10 nM, 10 μM NADPH, 100 μM α-KG; range where run multiple times
T2 construct: His6 with PreScission site (N, cleaved yes); made in house; host or cells: E. coli Rosetta 2(DE3)
Protocol: The IDH1 (R132H) mutant catalyzes the reduced form of NADP+ (NADPH) and α-ketoglutarate (α-KG) to form nicotinamide adenine dinucleotide phosphate (NADP+) and R(−)-2-hydroxyglutarate (2HG). […] Reactions were monitored using the Perkin-Elmer Envision, Model 2101. […] The final reaction mixture contained 2.5% DMSO and test compounds with concentrations ranging 0.0000008-25 μM. The IDH1 (R132H) enzyme was used at a final concentration of 10 nM. Curve fitting for dose response […] determinations was done in the Helios module of the software package DAVID. The 4-parameter logistic model was used: y=min+((max−min)/1+(x/IC50)^shape)

T1 sequence (O75874 whole entry R132H): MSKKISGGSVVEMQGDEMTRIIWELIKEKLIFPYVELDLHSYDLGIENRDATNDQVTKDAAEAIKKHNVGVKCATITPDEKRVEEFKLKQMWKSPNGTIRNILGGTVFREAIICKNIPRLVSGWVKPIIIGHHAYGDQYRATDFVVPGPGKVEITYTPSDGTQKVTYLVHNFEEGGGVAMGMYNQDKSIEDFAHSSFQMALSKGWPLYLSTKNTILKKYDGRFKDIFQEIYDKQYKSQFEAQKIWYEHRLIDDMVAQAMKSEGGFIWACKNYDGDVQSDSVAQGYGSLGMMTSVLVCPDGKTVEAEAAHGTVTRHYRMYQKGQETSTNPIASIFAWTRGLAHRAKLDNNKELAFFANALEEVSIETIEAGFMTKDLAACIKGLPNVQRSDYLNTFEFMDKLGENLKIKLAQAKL
T2 sequence (O75874 whole entry R132H): as above

Row | Structure (SMILES) | pIC50 [1] | pIC50 [2]
1 | Cc1cc(N2C(=O)OC[C@@H]2C2CC2)nc(N[C@@H](C)c2cnc(-c3ccc(Cl)cc3)s2)n1 [Example 9, (S)-3-(2-(((S)-1-(2-(4-chlorophenyl)thiazol-5-yl)ethyl)amino)-6-methylpyrimidin-4-yl)-4-cyclopropyloxazolidin-2-one] | 7.36 | 6.98
2 | C[C@H](Nc1nc(Cl)cc(N2C(=O)OC[C@@H]2C2CC2)n1)c1ccc(-c2cnn(C)c2)cc1F [Example 19, (S)-3-(6-chloro-2-(((S)-1-(2-fluoro-4-(1-methyl-1H-pyrazol-4-yl)phenyl)ethyl)amino)pyrimidin-4-yl)-4-cyclopropyloxazolidin-2-one] | 7.24 | 7.35
